This is an account of results in patent publication US20020025296A1, “Combined use of nucleoside analogues and gene transfection for tissue imaging and therapy” (priority 1994, published 2002).

Data set [1] can be described thus: Stability of the preferred compounds. The following applies: comparison among preferred compounds.
Data set [2] can be described thus: Partition coefficients (log P), n-octanol/water, modified shake-flask technique with UV quantitation. Type of data set: physicochemical. To be noted: n-octanol and water (1:1, v/v). The method, then:
Partition coefficients (log P) were measured by determining the distribution of the test compound between a presaturated mixture of n-octanol and water (1:1, v/v). The analytical method consisted of a modified shake-flask technique and ultraviolet (UV) spectrometry quantitation after centrifugal separation of the two phases. The concentration of the test compound in the octanol phase prior to distribution was 0.5 mM. The dihydropyridine chromophore (λmax=360 nm) was used for quantitative UV analysis of IVDU-CDS and IVFRU-CDS, for which the results are shown in Table 1.

Data set [3] can be described thus: Pseudo-first order oxidation of the 1-methyl-1,4-dihydropyridine-CDS in mouse blood, brain homogenate and liver homogenate. Type of data set: in vitro ADME. To be noted: 37° C.; for k, oxidation rate, brain / t1/2, oxidation, brain: 20% mouse brain homogenate; for k, oxidation rate, blood / t1/2, oxidation, blood: 50% mouse blood. The method, then: Pseudo-first order rate constants and half-lives for the oxidation of IVDU-CDS and IVFRU-CDS were determined in 50% mouse blood, 20% mouse brain homogenate and 20% mouse liver homogenate. A solution of the test compound in DMSO (10 Mm) was added to each matrix and incubated at 37° C. At various times after test compound addition, an aliquot was removed and added to acetonitrile (100 μL). The samples were immediately centrifuged and the supernatant was analyzed by quantitative reverse phase HPLC. The rate of disappearance of the 1-methyl-1,4-dihydropyridine-CDS was determined by UV detection at 360 nm.

The test system of data set [4] is KBALB-STK cells that express HSV-1 TK. Put plainly: In vitro cellular uptake of radiopharmaceuticals in transduced or non-transduced sarcoma cell lines. The following applies: KBALB-STK cells relative to KBALB or KBALB-LNL cells, 37° C. Type of data set: cell-based. The method, then:
The KBALB sarcoma models used in these studies are derived by exposing wild-type KBALB cells to Moloney murine leukemia virus (MMLV) producer cell supernatants containing replication incompetent ecotropic retroviruses. […] These transduced cell lines are cultured in media containing the antibiotic G-418 to select for those cells expressing the neomycin resistance gene.
KBALB-STK, KBALB-LNL, or wild type KBALB cells were grown to confluency in 24 well culture plates. [^125I]-IVDU (sp. act.=12 Gbq/mmol), [^125I]-1VFRU (sp. act.=11 Gbq/mmol), [^131′I]-IVDU-CDS (sp. act.=2.8 Gbq/mmol) or [^131I]-IVFRU-CDS (sp. act.=4.3 Gbq/mmol) were added to each well in 100 μL saline solution and incubated at 37° C. At varying times after exposure to the test compound, the supernatant was removed, the cells rinsed with saline, and the adherent cells were then trypsinized prior to their removal. Cellular uptake -was determined by gamma counting using a Beckmann 8000 gamma counter.

The test system of data set [5] is KBALB-STK tumors. Put plainly: Biodistribution in mice bearing KBALB-STK tumors. Type of data set: in vivo. The protocol:
(§1) KBALB or KBALB-STK cells (1×10^5 cells) were injected subcutaneously into the flank of male Balb-c mice. Palpable tumors appeared 14 days after injection. [^131I]-IVFRU (370 KBq, sp. act. 59 Gbq/mmol) was injected via the tail vein into each tumor bearing animal. Three animals were sacrificed and dissected at each time interval. The radioactivity uptake by selected tissues of interest were determined using a Beckman 8000 gamma counter. Tissue uptake is expressed as a percentage of the administered dose per gram of tissue versus time in FIGS. 3 and 4. The tumor to blood ratio is presented for both tumor models in FIG. 5.

The subject of data set [6] is KBALB-STK tumors expressing HSV-1 TK. Put plainly: Scintigraphic imaging of KBALB-STK tumors. The following applies: 8 hours after administration. Type of data set: in vivo, mice. The protocol:
(§2) BALB-STK cells (1×10^5 cells) were injected subcutaneously into the flank of 12 Balb-c mice. All inoculated animals developed palpable tumors suitable for imaging after 14 days at which time the tumors were approximately 10 mm in diameter. Static images were obtained following injection of 3.7 Mbq of [^131I]-VFRU (sp. act.=252 Gbq/mmol) via the tail vein. Animals were placed in the prone position under a pinhole collimator using a Searle gamma camera (Scintiview) with data manipulated on an ADAC computer (DPS 3300). Images were acquired over 15 minutes using a 256×256 matrix. After initial imaging, a group of animals (n=6) were administered an intraparietoneal (ip) injection of ganciclovir (100 mg/kg) once daily for seven consecutive days. The control group (n=6) received daily saline injections. After four days, the animals were administered [^131I]-IVFRU as described previously and imaging was performed using the same acquisition protocol described above. It was noted that the treatment group tumor size had shrunk to an average size of less than 5 mm. […] The tumors in the saline administered control animals continued to grow until termination of the experiment. […] The scintigram, presented as FIG. 7, is for the same animal 8 hours after [^131I]-IVFRU administration following 4 days of ganciclovir treatment.

The test system of data set [7] is KBALB tumors. The data set is described as follows: Biodistribution in mice bearing wild type KBALB tumors. Type of data set: in vivo. The following applies: relative to KBALB-STK tumors. The method, then: as §1
The target in data set [8] is HSV-1 TK (Human herpesvirus 1, UniProt P0DTH5). The data set is described as follows: Substrate property for the gene expression product HSV-1 TK. Type of data set: biochemical, herpes simplex virus type 1.
HSV-1 TK, sequence (P0DTH5 whole entry): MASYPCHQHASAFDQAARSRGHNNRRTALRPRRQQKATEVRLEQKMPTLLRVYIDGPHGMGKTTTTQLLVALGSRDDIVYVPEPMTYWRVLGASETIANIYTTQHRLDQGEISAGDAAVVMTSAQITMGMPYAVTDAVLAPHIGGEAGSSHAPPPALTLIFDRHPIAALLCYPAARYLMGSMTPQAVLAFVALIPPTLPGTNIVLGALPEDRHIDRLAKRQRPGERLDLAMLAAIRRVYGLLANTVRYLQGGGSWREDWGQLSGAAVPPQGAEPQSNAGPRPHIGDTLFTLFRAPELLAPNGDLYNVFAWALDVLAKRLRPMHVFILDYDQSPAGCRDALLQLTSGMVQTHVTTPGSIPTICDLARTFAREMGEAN
Data set [9] relates to KBALB-STK tumors. The data set is described as follows: Ganciclovir treatment of mice bearing KBALB-STK tumors. Type of data set: in vivo. To be noted: 100 mg/kg ip once daily. The method, then: as §2

The structures appear in SMILES notation.

Usually logP stands for a log measure of how a compound divides between an organic and an aqueous phase. As to `O=c1[nH]c(=O)n([C@H]2C[C@H](O)[C@@H](CO)O2)cc1/C=C/I` [IVDU, (E)-5-(2-iodovinyl)-2′-deoxyuridine], the stability entry in data set [1] is “less stable than IVFRU, IVFAU and IVAU”. For the same compound, the logP in data set [2] is 1.1.
The term log P denotes the decadic logarithm of the partition coefficient of the neutral form, usually between octanol and water. Low values mean lower lipophilicity, high ones higher lipophilicity. As for `CN1C=CCC(C(=O)O[C@H]2C[C@H](n3cc(/C=C/I)c(=O)[nH]c3=O)O[C@@H]2CO)=C1` [IVDU-CDS, (E)-5-(2-iodovinyl)-3′-O-(1-methyl-1,4-dihydropyridyl-3-carbonyl)-2′-deoxyuridine], the stability entry in data set [1] is “more stable”. In addition, in data set [3], the “k, oxidation rate, brain” value came out at 0.00961 min⁻¹; the “t1/2, oxidation, brain” value amounted to 1.2 h; the “k, oxidation rate, blood” value was found to be 0.00522 min⁻¹; the “t1/2, oxidation, blood” value amounted to 2.22 h. Also, in data set [3] (20% mouse liver homogenate), the “k, oxidation rate, liver” value came to 0.01081 min⁻¹. Also, the “log P” value in data set [2] was 1.77.
`O=c1[nH]c(=O)n([C@@H]2O[C@H](CO)[C@@H](O)[C@H]2F)cc1/C=C/I` [IVFRU, (E)-5-(2-iodovinyl)-2′-fluoro-2′-deoxyuridine] came in with a logP in data set [2] of 1.21.
Take `CN1C=CCC(C(=O)O[C@H]2[C@@H](F)[C@H](n3cc(/C=C/I)c(=O)[nH]c3=O)O[C@@H]2CO)=C1` [IVFRU-CDS, (E)-5-(2-iodovinyl)-3′-O-(1-methyl-1,4-dihydropyridyl-3-carbonyl)-2′-fluoro-2′-deoxyuridine]: in [3], the “k, oxidation rate, brain” value worked out at 0.0031 min⁻¹; the “t1/2, oxidation, brain” value was found to be 3.72 h; the “k, oxidation rate, blood” value was 0.0027 min⁻¹; the “t1/2, oxidation, blood” value was found to be 4.27 h. Besides, in [3] (20% mouse liver homogenate), the “k, oxidation rate, liver” value came out at 0.00531 min⁻¹ and the “t1/2, oxidation, liver” value worked out at 2.17 h. In data set [2], the “log P” value is 1.83.
`O=c1[nH]c(=O)n([C@@H]2O[C@H](CO)[C@@H](O)[C@@H]2F)cc1C=C[125I]` [[^125I]-IVFRU]: in [4], the cellular uptake result was “selective uptake”.
Turning to `O=c1[nH]c(=O)n([C@H]2C[C@H](O)[C@@H](CO)O2)cc1C=C[125I]` [[^125I]-VDU], in data set [4], the cellular uptake entry is given as “selective uptake”.
Consider `O=c1[nH]c(=O)n(C2OC(CO)C(O)C2F)cc1/C=C/[131I]` (stereo not shown) [[^131I]-IVFRU, [^131I]-(E)-5-(2-iodovinyl)-2′-fluoro-2′-deoxyuridine], for which, in data set [5] (KBALB-STK tumors, 8 hours post injection, tail vein), the peak tumor/blood ratio entry was “approximately 3”. Further, the tumor uptake result in data set [5] (tumors expressing HSV-1 TK) is “Preferential tumor uptake”. Moreover, the “activity in region of the shrinking tumor remnant (scintigram)” value in [6] (following 4 days of ganciclovir treatment) is “relatively devoid of activity”. Moreover, the “uptake into tumor (scintigram)” value in [6] (prior to ganciclovir treatment) is “selective uptake”. In addition, the tumor/blood ratios result in data set [7] (all time points) is reported as “much lower”. For the same compound, the tumor radioactivity entry in data set [7] is “significantly less”.
As to `O=c1[nH]c(=O)n([C@@H]2O[C@H](CO)[C@@H](O)[C@H]2F)cc1/C=C/[123I]` [^123I-IVFRU], the “substrate for HSV-1 TK” value in [8] is listed as “substrate”.
Take `Nc1nc(O)c2ncn(COC(CO)CO)c2n1` [ganciclovir]: the tumor response result in data set [9] (after 7 days of treatment, all treated animals) is given as “completely regressed”. Also, the average tumor size entry in [9] (after four days, tumors approximately 10 mm at start) is “less than 5 mm”.
